Measurements taken from patent publication US20130303509A1, “NAMPT INHIBITORS” (AbbVie Inc., priority 2012, published 2013).

Tested on: PC3 cells
Experiment: NAMPT Cell Proliferation Assay
Type: cell-based
Details: Homo sapiens, PC-3, 120 h, 5 days incubation, cell viability by Cell Titer Glo
Procedure, shortened: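 Seeded at 500 cells/well in RPMI with 10% heat-inactivated FBS and left to attach overnight at 37° C, 5% CO2. Compounds were added as 10-fold dilutions […] for 5 days, then viability was read by CellTiter-Glo. IC50s came from sigmoidal fits of percent inhibition.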

| Compound | IC50 |
| --- | --- |
| CC(C)(C)C(=O)N1C2CCC1CC(c1ccc(NC(=O)C3CN(c4cccnn4)C3)cc1)C2 (stereo not shown) [Example 844, N-{4-[8-(2,2-dimethylpropanoyl)-8-azabicyclo[3.2.1]oct-3-yl]phenyl}-1-(pyridazin-3-yl)azetidine-3-carboxamide] | 2.52 nM |
| CC(C)(C)C(=O)N1CCC(c2ccc(NC(=O)[C@H]3CCN(c4cccnn4)C3)cc2)CC1 [Example 313, (3S)—N-{4-[1-(2,2-dimethylpropanoyl)piperidin-4-yl]phenyl}-1-(pyridazin-3-yl)pyrrolidine-3-carboxamide] | 6.03 nM |
| CC(C)C(C)C(=O)N1CCC(c2ccc(NC(=O)C3CN(c4cccnc4)C3)cc2)CC1 (stereo not shown) [Example 139, N-{4-[1-(2,3-dimethylbutanoyl)piperidin-4-yl]phenyl}-1-(pyridin-3-yl)azetidine-3-carboxamide] | 0.18 nM |
| O=C(Nc1ccc(OC2CCN(C(=O)c3ccccc3Cl)CC2)cc1)C1CN(c2cccnn2)C1 [Example 211, N-(4-{[1-(2-chlorobenzoyl)piperidin-4-yl]oxy}phenyl)-1-(pyridazin-3-yl)azetidine-3-carboxamide] | 5.94 nM |
| O=C(Nc1ccc(C2CCN(C(=O)c3ccc(F)cc3F)CC2)cc1)[C@H]1CCN(c2cccnn2)C1 [Example 692, (3S)-N-{4-[1-(2,4-difluorobenzoyl)piperidin-4-yl]phenyl}-1-(pyridazin-3-yl)pyrrolidine-3-carboxamide] | 4.23 nM |
| CC(C)(C)C(=O)N1CCC(c2ccc(NC(=O)C3CN(c4cccnn4)C3)c(F)c2)CC1 [Example 859, N-{4-[1-(2,2-dimethylpropanoyl)piperidin-4-yl]-2-fluorophenyl}-1-(pyridazin-3-yl)azetidine-3-carboxamide] | 2.7 nM |
| O=C(Nc1ccc(OC2CCN(C(=O)c3cccc(C(F)(F)F)c3)CC2)cc1)C1CN(c2cccnn2)C1 [Example 222, 1-(pyridazin-3-yl)-N-[4-({1-[3-(trifluoromethyl)benzoyl]piperidin-4-yl}oxy)phenyl]azetidine-3-carboxamide] | 15.5 nM |
| O=C(Nc1ccc(OC2CCN(C(=O)c3ccccn3)CC2)cc1)C1CN(c2cccnn2)C1 [Example 242, 1-(pyridazin-3-yl)-N-(4-{[1-(pyridin-2-ylcarbonyl)piperidin-4-yl]oxy}phenyl)azetidine-3-carboxamide] | 9.06 nM |
| CC(C)(C)C(=O)N1CCC(Oc2ccc(NC(=O)C3CN(c4cccnn4)C3)cc2)CC1 [Example 241, N-(4-{[1-(2,2-dimethylpropanoyl)piperidin-4-yl]oxy}phenyl)-1-(pyridazin-3-yl)azetidine-3-carboxamide] | 7.73 nM |
| Cc1cccc(C(=O)N2CCC(c3ccc(NC(=O)[C@H]4CCN(c5cccnn5)C4)cc3)CC2)c1C [Example 728, (3S)-N-{4-[1-(2,3-dimethylbenzoyl)piperidin-4-yl]phenyl}-1-(pyridazin-3-yl)pyrrolidine-3-carboxamide] | 6.97 nM |
| CC(C)C(=O)N1CC[C@@H](Oc2ccc(NC(=O)C3CN(c4cccnn4)C3)cc2)C1 [Example 513, N-(4-{[(3R)-1-(2-methylpropanoyl)pyrrolidin-3-yl]oxy}phenyl)-1-(pyridazin-3-yl)azetidine-3-carboxamide] | 3.5 nM |
| O=C(NC1CN(c2cccnc2)C1)c1ccc(OC2CCN(C(=O)CC3CCOCC3)CC2)cc1 [Example 21, N-[1-(pyridin-3-yl)azetidin-3-yl]-4-{[1-(tetrahydro-2H-pyran-4-ylacetyl)piperidin-4-yl]oxy}benzamide] | 150 nM |
| O=C(Nc1ccc(OC2CCN(C(=O)c3cccc(OC(F)(F)F)c3)CC2)cc1)C1CN(c2cccnn2)C1 [Example 224, 1-(pyridazin-3-yl)-N-[4-({1-[3-(trifluoromethoxy)benzoyl]piperidin-4-yl}oxy)phenyl]azetidine-3-carboxamide] | 7.52 nM |
| O=C(N[C@H]1CCN(c2cccnn2)C1)c1ccc(C2CCN(C(=O)c3cscn3)CC2)s1 [Example 768, N-[(3S)-1-(pyridazin-3-yl)pyrrolidin-3-yl]-5-[1-(1,3-thiazol-4-ylcarbonyl)piperidin-4-yl]thiophene-2-carboxamide] | 111 nM |

Continued, values first:

| IC50 | Compound |
| --- | --- |
| > 10000 nM | CC(C)Cn1cc(-c2cc(C(=O)N[C@@H]3CCN(c4cnnc(Cl)c4Cl)C3)cs2)cn1 [Example 622, N-[(3R)-1-(5,6-dichloropyridazin-4-yl)pyrrolidin-3-yl]-5-[1-(2-methylpropyl)-1H-pyrazol-4-yl]thiophene-3-carboxamide] |
| 10 nM | O=C(Nc1ccc(C2CCN(C(=O)C3CC3)CC2)cc1F)C1CN(c2cccnn2)C1 [Example 860, N-{4-[1-(cyclopropylcarbonyl)piperidin-4-yl]-2-fluorophenyl}-1-(pyridazin-3-yl)azetidine-3-carboxamide] |
| 83 nM | CC(C)CC(=O)N1CCC(Oc2ccc(NC(=O)C3CN(c4ccnnc4)C3)cc2)CC1 [Example 266, N-(4-{[1-(3-methylbutanoyl)piperidin-4-yl]oxy}phenyl)-1-(pyridazin-4-yl)azetidine-3-carboxamide] |
| 69.3 nM | Cc1ncccc1N1CC(C(=O)Nc2ccc(C3CCN(C(=O)CC(C)(C)C)CC3)cc2)C1 [Example 192, N-{4-[1-(3,3-dimethylbutanoyl)piperidin-4-yl]phenyl}-1-(2-methylpyridin-3-yl)azetidine-3-carboxamide] |
| 173 nM | CCC(C)CC(=O)N1CCC(c2ccc(NC(=O)C3CN(c4cccnc4C)C3)cc2)CC1 (stereo not shown) [Example 160, N-{4-[1-(3-methylpentanoyl)piperidin-4-yl]phenyl}-1-(2-methylpyridin-3-yl)azetidine-3-carboxamide] |
| 0.14 nM | O=C(Nc1ccc(C2CCN(C(=O)c3cccs3)CC2)cc1)C1CN(c2cccnc2)C1 [Example 127, 1-(pyridin-3-yl)-N-{4-[1-(thiophen-2-ylcarbonyl)piperidin-4-yl]phenyl}azetidine-3-carboxamide] |
| 6.46 nM | O=C(Nc1ccc(O[C@@H]2CCN(C(=O)c3ccc(F)cc3F)C2)cc1)[C@H]1CCN(c2cccnn2)C1 [Example 783, (3S)-N-(4-{[(3R)-1-(2,4-difluorobenzoyl)pyrrolidin-3-yl]oxy}phenyl)-1-(pyridazin-3-yl)pyrrolidine-3-carboxamide] |
| 14.2 nM | CC(C)(C)c1ccc(C(=O)N2CCC(c3ccc(NC(=O)[C@H]4CCN(c5cccnn5)C4)cc3)CC2)cc1 [Example 708, (3S)-N-{4-[1-(4-tert-butylbenzoyl)piperidin-4-yl]phenyl}-1-(pyridazin-3-yl)pyrrolidine-3-carboxamide] |
| 1.5 nM | O=C(Nc1ccc(C2CCN(C(=O)CCS(=O)(=O)c3ccccc3)CC2)cc1)C1CN(c2cccnn2)C1 [Example 424, N-(4-{1-[3-(phenylsulfonyl)propanoyl]piperidin-4-yl}phenyl)-1-(pyridazin-3-yl)azetidine-3-carboxamide] |
| 67.7 nM | O=C(Nc1ccc(OC2CCN(C(=O)CC3CCOCC3)CC2)cc1)C1CN(c2cnccc2F)C1 [Example 6, 1-(4-fluoropyridin-3-yl)-N-(4-{[1-(tetrahydro-2H-pyran-4-ylacetyl)piperidin-4-yl]oxy}phenyl)azetidine-3-carboxamide] |
| 78.6 nM | O=C(NC1CN(c2cccnn2)C1)c1ccc(C2CCN(C(=O)c3ccc(F)cc3F)CC2)s1 [Example 813, 5-[1-(2,4-difluorobenzoyl)piperidin-4-yl]-N-[1-(pyridazin-3-yl)azetidin-3-yl]thiophene-2-carboxamide] |
| 15.2 nM | O=C(Nc1ccc(C2CCN(C(=O)c3ccc(Cl)cc3)CC2)cc1)C1CN(c2ccnnc2)C1 [Example 545, N-{4-[1-(4-chlorobenzoyl)piperidin-4-yl]phenyl}-1-(pyridazin-4-yl)azetidine-3-carboxamide] |
| 3.18 nM | O=C(Nc1ccc(C2CCN(C(=O)C(c3ccccc3)c3ccccc3)CC2)cc1)C1CN(c2cccnn2)C1 [Example 386, N-{4-[1-(diphenylacetyl)piperidin-4-yl]phenyl}-1-(pyridazin-3-yl)azetidine-3-carboxamide] |
| 39.5 nM | O=C(Nc1ccc(O[C@@H]2CCN(C(=O)c3cscn3)C2)cc1)C1CN(c2ccnnc2)C1 [Example 456, 1-(pyridazin-4-yl)-N-(4-{[(3R)-1-(1,3-thiazol-4-ylcarbonyl)pyrrolidin-3-yl]oxy}phenyl)azetidine-3-carboxamide] |
| 188 nM | O=C(NC1CN(c2cccnn2)C1)c1ccc(C2CCN(C(=O)c3cc(F)cc(F)c3)CC2)s1 [Example 816, 5-[1-(3,5-difluorobenzoyl)piperidin-4-yl]-N-[1-(pyridazin-3-yl)azetidin-3-yl]thiophene-2-carboxamide] |
| 6.32 nM | Cn1cccc1C(=O)N1CCC(Oc2ccc(NC(=O)C3CN(c4cccnc4)C3)cc2)CC1 [Example 64, N-[4-({1-[(1-methyl-1H-pyrrol-2-yl)carbonyl]piperidin-4-yl}oxy)phenyl]-1-(pyridin-3-yl)azetidine-3-carboxamide] |
| 2.77 nM | Cc1cc(C)cc(C(=O)N2CCC(c3ccc(NC(=O)C4CN(c5cccnn5)C4)cc3)CC2)c1 [Example 361, N-{4-[1-(3,5-dimethylbenzoyl)piperidin-4-yl]phenyl}-1-(pyridazin-3-yl)azetidine-3-carboxamide] |
| 2.52 nM | O=C(Nc1ccc(C2(F)CCN(C(=O)c3ccccc3F)CC2)cc1)C1CN(c2cccnn2)C1 [Example 857, N-{4-[4-fluoro-1-(2-fluorobenzoyl)piperidin-4-yl]phenyl}-1-(pyridazin-3-yl)azetidine-3-carboxamide] |
| 1.47 nM | Cc1cccc(C(=O)N2CCC(c3ccc(NC(=O)C4CN(c5cccnn5)C4)cc3)CC2)c1C [Example 357, N-{4-[1-(2,3-dimethylbenzoyl)piperidin-4-yl]phenyl}-1-(pyridazin-3-yl)azetidine-3-carboxamide] |
| 9.39 nM | O=C(Nc1ccc(C2CCN(C(=O)c3cccc(C(F)(F)F)c3)CC2)cc1)C1CN(c2ccnnc2)C1 [Example 535, 1-(pyridazin-4-yl)-N-(4-{1-[3-(trifluoromethyl)benzoyl]piperidin-4-yl}phenyl)azetidine-3-carboxamide] |
